In PMC12779026, “α-Glycosidase activity of novel coumarin–triazole–coumarin dyads” (Turkish Journal of Chemistry, 2025):
Entries after “also recorded” stand apart in the source; their conditions may differ.

Assays:
α-glycosidase [1] = experiment: α-Glycosidase inhibitory assay (spectrophotometric, 4-pNPG substrate, 405 nm); format: biochemical; conditions: 0.5 U/mL α-glycosidase, 5 mM 4-pNPG, phosphate buffer pH 6.9, compounds 5–250 μM
Procedure: The α-glycosidase inhibitory effects of the compounds were determined as described in the previous study. Acarbose (Sigma-Aldrich, A8980) was used as a reference compound in this study. The compounds were first dissolved in 25 mM DMSO and then diluted to 1 mM with phosphate buffer (0.1 M, pH: 6.9). In brief, the compounds and acarbose in phosphate buffer (0.1 M, pH: 6.9) were added to a 96-well plate at 5–250 μM. Then, 100 μL, 0.5 U/mL α-glycosidase (Sigma-Aldrich, G5003) was added to the wells. After 10 min, 50 μL of 5 mM p-nitrophenyl-α-D-glucopyranoside (4-pNPG) (Sigma-Aldrich, 487506) was added as a substrate to each well. After incubation for 10 min, spectrophotometric measurement was performed at 405 nm. The percentage inhibition rate of the compounds was calculated using the following formula: […]
In this formula, A0 and A1 represent the absorbance of the mixture in the absence and presence of the compound, respectively. In addition, IC50 values, which indicate the […] required to inhibit half of the enzyme activity, were calculated.

α-glycosidase [2] = experiment: Kinetic analysis of α-glycosidase inhibition (Lineweaver–Burk and Dixon plots); format: biochemical
Procedure: To determine this, the final concentration of α-glycosidase was fixed at 0.5 U/mL. Then, different concentrations of 4-pNPG (2.5–20 mM) and varying concentrations of 4e (20 μM, 40 μM, and 100 μM) showing inhibitory potential were added to the wells. Following incubation, the absorbance values at 405 nm in the presence and absence of the compound were measured in the microplate reader. Lineweaver–Burk and Dixon plots were used to determine the inhibitor type and the inhibitory constant (Ki) of 4e. In the Lineweaver–Burk plot, the y-axis represents 1/V, the inverse of the reaction rate, while the x-axis represents 1/[S], the inverse of the substrate concentration. According to this plot, the points intersecting the y-axis give the value 1/Vmax. From here, the Vmax value, which represents the maximum reaction rate, can be determined. Km, a value indicating the enzyme’s interest in the substrate, can be determined from the points where the line intersects the x-axis. The type of inhibition is then determined by analyzing the changes in Vmax and Km. The Dixon graph is used to calculate the Ki value, which indicates the inhibitory potential of 4e.

Compound | IC50 (α-glycosidase [1]) | Ki (α-glycosidase [2]; Dixon plot) | Type (of inhibition) (α-glycosidase [2]; Lineweaver–Burk plot, 4-pNPG 2.5–20 mM, 4e 20, 40, 100 μM)
Cc1c(O)ccc2c(Cn3cc(COc4ccc5cc(-c6ccccc6)c(=O)oc5c4)nn3)cc(=O)oc12 [4a, 7-Hydroxy-8-methyl-4-((4-(((2-oxo-3-phenyl-2H-chromen-7-yl)oxy)methyl)-1H-1,2,3-triazol-1-yl)methyl)-2H-chromen-2-one] | 95 ± 3.55 µM | – | –
Cc1ccc(-c2cc3ccc(OCc4cn(Cc5cc(=O)oc6c(C)c(O)ccc56)nn4)cc3oc2=O)cc1 [4b, 7-Hydroxy-8-methyl-4-((4-(((2-oxo-3-(p-tolyl)-2H-chromen-7-yl)oxy)methyl)-1H-1,2,3-triazol-1-yl)methyl)-2H-chromen-2-one] | 123 ± 4.2 µM | – | –
COc1ccc(-c2cc3ccc(OCc4cn(Cc5cc(=O)oc6c(C)c(O)ccc56)nn4)cc3oc2=O)cc1 [4c, 7-Hydroxy-4-((4-(((3-(4-methoxyphenyl)-2-oxo-2H-chromen-7-yl)oxy)methyl)-1H-1,2,3-triazol-1-yl)methyl)-8-methyl-2H-chromen-2-one] | 109 ± 2.4 µM | – | –

Further lines, with some results ahead:

IC50 (α-glycosidase [1]) | Ki (α-glycosidase [2]; Dixon plot) | Compound | Type (of inhibition) (α-glycosidase [2]; Lineweaver–Burk plot, 4-pNPG 2.5–20 mM, 4e 20, 40, 100 μM)
93.5 ± 1.7 µM | – | Cc1c(O)ccc2c(Cn3cc(COc4ccc5cc(-c6ccc(F)cc6)c(=O)oc5c4)nn3)cc(=O)oc12 [4d, 4-((4-(((3-(4-Fluorophenyl)-2-oxo-2H-chromen-7-yl)oxy)methyl)-1H-1,2,3-triazol-1-yl)methyl)-7-hydroxy-8-methyl-2H-chromen-2-one] | –
39 ± 0.77 µM | 19.95 ± 0.15 µM | Cc1c(O)ccc2c(Cn3cc(COc4ccc5cc(-c6ccc([N+](=O)[O-])cc6)c(=O)oc5c4)nn3)cc(=O)oc12 [4e, 7-Hydroxy-8-methyl-4-((4-(((3-(4-nitrophenyl)-2-oxo-2H-chromen-7-yl)oxy)methyl)-1H-1,2,3-triazol-1-yl)methyl)-2H-chromen-2-one] | mixed type; also recorded: mixed inhibitor
64.5 ± 2.53 µM | – | C[C@H]1O[C@H](O[C@H]2[C@H](O)[C@@H](O)[C@@H](O[C@H]3[C@H](O)[C@@H](O)C(O)O[C@@H]3CO)O[C@@H]2CO)[C@H](O)[C@@H](O)[C@@H]1N[C@H]1C=C(CO)[C@@H](O)[C@H](O)[C@H]1O (some centres unmarked) [Acarbose, reference compound] | –
